Measurements published in ChEMBL document CHEMBL1201862, “PubChem BioAssay data set” (2004).
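96-well plates; 48 h exposure; 5 concentrations. Endpoints by linear interpolation between flanking doses. Not reached: highest tested concentration assigned. Here, GI50 denotes the concentration required for 50% inhibition of growth.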 Activity calls are given as the source filed them. No stated cut-off is given here; in the data, active = GI50 up to about 1.1 µM and inactive = higher.

Legend:
Test in all cases: DTP human tumour cell line panel, 48 h
HOP-62 = tested on: HOP-62
EKVX = tested on: EKVX
A498 = tested on: A498
TK-10 = tested on: TK-10
RPMI-8226 = tested on: RPMI-8226
CCRF-CEM = tested on: CCRF-CEM
SNB-78 = tested on: SNB-78
M14 = tested on: M14
U-251 = tested on: U-251
SK-MEL-5 = tested on: SK-MEL-5
HCT-15 = tested on: HCT-15
UACC-257 = tested on: UACC-257
A549 = tested on: A549
ACHN = tested on: ACHN
SN12C = tested on: SN12C
MCF7 = tested on: MCF7

SMILES	GI50 (HOP-62)	GI50 (EKVX)	GI50 (A498)	GI50 (TK-10)	GI50 (RPMI-8226)	GI50 (CCRF-CEM)	GI50 (SNB-78)	GI50 (M14)	GI50 (U-251)	GI50 (SK-MEL-5)	GI50 (HCT-15)	GI50 (UACC-257)	GI50 (A549)	GI50 (ACHN)	GI50 (SN12C)	GI50 (MCF7)
CC(=O)NNc1nc(C)c(C(=O)NNC(=O)C(=O)Nc2c(C)cccc2C(C)(C)C)s1	> 100 µM (inactive)	> 100 µM (inactive)	> 100 µM (inactive)	> 100 µM (inactive)	45.9 µM (inactive)	16.2 µM (inactive)	> 100 µM (inactive)	> 100 µM (inactive)	58.7 µM (inactive)	> 100 µM (inactive)	59.7 µM	> 100 µM (inactive)	46.9 µM (inactive)	59.4 µM (inactive)	44.2 µM (inactive)	
CCOc1cc(/C=C/C=C/c2ccc(N(C)C)cc2)[s+]c2ccccc12	7.71 µM (inactive)	34.5 µM (inactive)	28.2 µM (inactive)	33.2 µM (inactive)	3.2 µM (inactive)	3.38 µM (inactive)	25.5 µM (inactive)	38.7 µM (inactive)	5.36 µM (inactive)	11.8 µM (inactive)	13.8 µM	23.3 µM (inactive)	11.4 µM (inactive)	30.5 µM (inactive)	35.8 µM (inactive)	
CC(=O)Nc1ccc(/C=C/c2ccc(NC(=O)Nc3ccc(/C=C/c4ccc(NC(C)=O)cc4S(=O)(=O)O)c(S(=O)(=O)O)c3)cc2S(=O)(=O)O)c(S(=O)(=O)O)c1	> 100 µM (inactive)	> 100 µM (inactive)	> 100 µM (inactive)		> 100 µM (inactive)	> 100 µM (inactive)	> 100 µM (inactive)		> 100 µM (inactive)	> 100 µM (inactive)	45.8 µM	> 100 µM (inactive)	> 100 µM (inactive)		> 100 µM (inactive)	> 100 µM (inactive)
CC[C@@]1(O)C[C@H](OC2CC(N(C)C)C(OC3CC(O)C(OC4CC(O)C(O)C(C)O4)C(C)O3)C(C)O2)c2c(cc3c(c2O)C(=O)c2c(O)ccc(O)c2C3=O)[C@H]1C(=O)OC (stereo partly specified)	0.06 µM (active)	0.0413 µM (active)	0.0146 µM (active)		0.011 µM (active)	< 0.0181 µM (active)	0.0776 µM (active)		0.084 µM (active)	0.0194 µM (active)	0.151 µM	0.0255 µM (active)	0.0105 µM (active)		0.0148 µM (active)	0.0156 µM (active)
O=C1CCC2(c3ccc(Cl)cc3)Nc3ccccc3N12 (stereo unspecified)	> 100 µM (inactive)	> 100 µM (inactive)	> 100 µM (inactive)	> 100 µM (inactive)	53.7 µM (inactive)		> 100 µM (inactive)		> 100 µM (inactive)		97.1 µM	> 100 µM (inactive)	52.6 µM (inactive)	60.4 µM (inactive)	> 100 µM (inactive)	
N#CCC(=O)N/N=C1/C(=O)N(c2cc(Cl)ccc2Cl)C(=O)C(=O)C1c1nc2ccccc2s1 (stereo unspecified)	> 100 µM (inactive)	43.4 µM (inactive)	> 100 µM (inactive)	81.8 µM (inactive)	56.8 µM (inactive)	36.9 µM (inactive)	> 100 µM (inactive)	> 100 µM (inactive)	80.9 µM (inactive)	> 100 µM (inactive)	> 100 µM	> 100 µM (inactive)	> 100 µM (inactive)	> 100 µM (inactive)	> 100 µM (inactive)	
CC1(C)CC2(CC(C)(C)N1O)NC(=O)OC2=O	> 100 µM (inactive)	> 100 µM (inactive)	> 100 µM (inactive)		> 100 µM (inactive)	> 77.4 µM (inactive)	> 100 µM (inactive)		> 100 µM (inactive)	> 100 µM (inactive)	> 100 µM	> 100 µM (inactive)	> 100 µM (inactive)		> 100 µM (inactive)	> 100 µM (inactive)
CC(C(=O)OCc1ccccc1)N(Cc1ccccc1)Cc1ccccc1 (stereo unspecified)	> 100 µM (inactive)	> 100 µM (inactive)	> 100 µM (inactive)	> 100 µM (inactive)	35.9 µM (inactive)	53.5 µM (inactive)	> 100 µM (inactive)	> 100 µM (inactive)	98.4 µM (inactive)	43.1 µM (inactive)	> 100 µM	33.7 µM (inactive)	> 100 µM (inactive)	87.3 µM (inactive)	> 100 µM (inactive)	
CC(=O)N(CCN)CCN	> 10 µM (inactive)	> 100 µM (inactive)	> 10 µM (inactive)	> 10 µM (inactive)	> 10 µM (inactive)	> 10 µM (inactive)	> 10 µM (inactive)	> 10 µM (inactive)	> 10 µM (inactive)	> 100 µM (inactive)	> 100 µM	> 10 µM (inactive)	> 10 µM (inactive)	> 100 µM (inactive)	> 10 µM (inactive)	
OC(Cn1cncn1)(Cn1cncn1)c1ccc(Cl)cc1Cl	> 100 µM (inactive)		> 100 µM (inactive)	> 100 µM (inactive)	> 100 µM (inactive)	> 100 µM (inactive)	> 100 µM (inactive)	> 100 µM (inactive)	> 100 µM (inactive)	> 100 µM (inactive)	> 100 µM	> 100 µM (inactive)	> 100 µM (inactive)	> 100 µM (inactive)	> 100 µM (inactive)	
CCCCCCCCCCCCC(=O)CCCCC(=O)O	18.3 µM (inactive)	33.3 µM (inactive)	16.8 µM (inactive)	44.9 µM (inactive)	16.7 µM (inactive)	33.7 µM (inactive)	72.6 µM (inactive)	17.5 µM (inactive)	24.4 µM (inactive)	18.2 µM (inactive)		38 µM (inactive)	18.3 µM (inactive)	26.5 µM (inactive)	24 µM (inactive)	
Cc1ccc(C(=O)Nc2ncn(C3CC(O)C(CO)O3)c(=O)n2)cc1 (stereo unspecified)	> 100 µM (inactive)	> 100 µM (inactive)	> 100 µM (inactive)		> 45.9 µM (inactive)	> 100 µM (inactive)	> 65.5 µM (inactive)		> 100 µM (inactive)	> 100 µM (inactive)	> 100 µM	> 100 µM (inactive)	> 100 µM (inactive)		> 100 µM (inactive)	> 100 µM (inactive)
C/C(CCN(C)C)=N\OC(=O)c1ccccc1	> 100 µM (inactive)	> 100 µM (inactive)	> 100 µM (inactive)	> 100 µM (inactive)	> 100 µM (inactive)	> 100 µM (inactive)	> 100 µM (inactive)	> 100 µM (inactive)	> 100 µM (inactive)	> 100 µM (inactive)		> 100 µM (inactive)	> 100 µM (inactive)	> 100 µM (inactive)	> 100 µM (inactive)	
